# Results reported in PubChem BioAssay (NCI).
# Values joined by “and” are separate entries in the source; they are usually repeats but may differ in a detail not shown here. Identical values can stand only once.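 96-well plates; 48 h exposure; 5 concentrations. Endpoints by linear interpolation between flanking doses. Not reached: highest tested concentration assigned. GI50: concentration for 50% inhibition of growth. TGI: concentration producing complete growth inhibition.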
# Tests used:
# Assay in all cases: NCI tumour cell line growth inhibition, 48 h
# HOP-18 NSCLC = tested on: HOP-18 NSCLC
# RXF-631 renal = tested on: RXF-631 renal
# DMS 273 small cell lung = tested on: DMS 273 small cell lung
# DMS 114 small cell lung = tested on: DMS 114 small cell lung
# SNB-78 CNS = tested on: SNB-78 CNS
# M19-MEL melanoma = tested on: M19-MEL melanoma
# MDA-N = tested on: MDA-N
# XF 498 CNS = tested on: XF 498 CNS
# LXFL 529 NSCLC = tested on: LXFL 529 NSCLC
# P388 leukemia = tested on: P388 leukemia
# P388/ADR leukemia = tested on: P388/ADR leukemia
# SN12K1 renal = tested on: SN12K1 renal
Compound,TGI (HOP-18 NSCLC),TGI (RXF-631 renal),TGI (DMS 273 small cell lung),TGI (DMS 114 small cell lung),TGI (SNB-78 CNS),TGI (M19-MEL melanoma),TGI (XF 498 CNS),TGI (LXFL 529 NSCLC),other results
CC(C)(C)c1ccc(OCCOCCOc2ccc(C(C)(C)C)cc2S(N)(=O)=O)c(S(N)(=O)=O)c1,> 100 µM,> 100 µM,> 100 µM,> 100 µM,> 100 µM,> 100 µM,,,
N=C(N)SCc1ccc(Cl)c2ccccc12 (tested in a mixture with another compound),,,,,,,,,TGI (MDA-N): 23.4 µM and 24.8 µM
CCCCC(C(=O)C(=O)Nc1ccccc1CC)C(=O)C(C)C (stereo not drawn),,> 100 µM,> 100 µM,> 100 µM,> 100 µM,> 100 µM,> 100 µM,> 100 µM,
CN(C)c1ccc(/C=c2/sc3nc(=O)c(-c4ccccc4NC(=O)C(F)(F)F)nn3c2=O)cc1,,,> 100 µM,57.2 µM,> 100 µM,> 100 µM,> 100 µM,> 100 µM,
O=C1c2ccccc2C2(O)N(c3ccccc3)C(=S)N(c3ccccc3)C12O (stereo not drawn),> 100 µM,> 100 µM,> 100 µM,> 100 µM,> 100 µM,> 100 µM,,> 100 µM,
ON1CCc2c([nH]c3ccccc23)C1c1ccc(Cl)cc1 (stereo not drawn),,,97.4 µM,> 100 µM,> 100 µM,> 100 µM,57.6 µM,> 100 µM,
C/C(=C\c1ccccc1)C(O)C(=O)c1nc2ccc(Cl)cc2[nH]c1=O (stereo not drawn),,,> 100 µM,> 100 µM,> 100 µM,> 100 µM,> 100 µM,> 100 µM,
CCOC(=O)C1C(NC(N)=O)N(Cc2ccccc2)C(=O)N1Cc1ccccc1 (stereo not drawn),> 100 µM,> 100 µM,> 100 µM,> 100 µM,29.2 µM,> 100 µM,> 100 µM,> 100 µM,
CCCCCNC(=O)CCCCCCCCCCCNC(=O)CCCCCCCCCCN1C=CC(=CC=C2C=CC(=O)C=C2)C=C1,,> 100 µM,> 100 µM,> 100 µM,96.9 µM,> 100 µM,> 100 µM,> 100 µM,
COc1nc(N)nc2nc[nH]c12,499 µM and 800 µM,800 µM,500 µM and > 800 µM,500 µM and > 800 µM,500 µM and 800 µM,> 800 µM,498 µM,> 800 µM,GI50 (HOP-18 NSCLC): 641 µM; TGI (P388 leukemia): 500 µM; GI50 (DMS 273 small cell lung): > 800 µM; GI50 (DMS 114 small cell lung): > 800 µM; TGI (P388/ADR leukemia): 500 µM; GI50 (MDA-N): 760 µM; TGI (MDA-N): > 1000 µM; GI50 (SNB-78 CNS): 684 µM; GI50 (M19-MEL melanoma): > 800 µM; TGI (SN12K1 renal): 500 µM
O=[N+]([O-])c1ccc(/C=C/c2ccc(/C=C/c3ccc([N+](=O)[O-])cc3[N+](=O)[O-])cc2)c([N+](=O)[O-])c1,,,> 100 µM,> 100 µM,> 100 µM,,> 100 µM,> 100 µM,
O=C1NC(c2ccccc2Cl)Nc2ccccc21 (stereo not drawn),,,,,,,,,TGI (MDA-N): 3.29 µM
Cc1ccccc1NC(=O)C1C(=O)N(c2ccccc2C)C(=O)/C1=N\NC(N)=O (stereo not drawn),> 100 µM,,> 100 µM,> 100 µM,> 100 µM,> 100 µM,,> 100 µM,
COc1ccc2cc3n(c(=O)c2c1)CCc1c-3cc(OC)c(OC)c1OC,> 100 µM,,> 100 µM,> 100 µM,> 100 µM,> 100 µM,> 100 µM,> 100 µM,
O=C1NC(=O)C2C3C=CC(C12)C1C2C(=O)NC(=O)C2C31 (stereo not drawn),98.8 µM and 250 µM,,250 µM,233 µM,250 µM,250 µM,244 µM,,GI50 (HOP-18 NSCLC): > 63.3 µM; TGI (P388 leukemia): 228 µM; GI50 (DMS 114 small cell lung): > 60.5 µM; TGI (P388/ADR leukemia): 250 µM; GI50 (MDA-N): 193 µM; TGI (MDA-N): 250 µM and > 1000 µM; GI50 (M19-MEL melanoma): 98.2 µM; TGI (SN12K1 renal): 250 µM
COC(=O)N/N=C(\C)c1sc(-c2nc(C)c(/C(C)=N/NC(=O)OC)s2)nc1C,> 100 µM,> 100 µM,> 100 µM,> 100 µM,> 100 µM,> 100 µM,,> 100 µM,
COc1ccc(C(C)Nc2cc(OC)c(OC)c(OC)c2)cc1 (stereo not drawn),> 100 µM,,> 100 µM,,17.6 µM,> 100 µM,> 26.4 µM,> 100 µM,
N#Cc1c(CC(=O)O)cc(=O)n2c1[nH]c1ccccc12,,,> 100 µM,> 100 µM,> 100 µM,> 100 µM,,,
CNS(=O)(=O)NNS(=O)(=O)c1ccc(C)cc1,,,,> 100 µM,,> 100 µM,,,
CC1(C)CC2=NO[Se]3=C2C(=NO3)C1,,,,,,,,,TGI (MDA-N): 4.22 µM
O=C1c2ccccc2N1C(=O)c1ccccc1[N+](=O)[O-],,,,,,,,,TGI (MDA-N): > 100 µM
CC(C)CCCC(C)C1CCC2C3CC([N+](=O)[O-])=C4CC(O)CCC4(C)C3CCC12C (stereo not drawn),,,27.2 µM,45.7 µM,,73.3 µM,37.1 µM,32.9 µM,
O=C(CC1(O)C(=O)Nc2c(Cl)ccc(Cl)c21)c1ccc(Cl)cc1 (stereo not drawn),> 100 µM,64.3 µM,73.5 µM,49.2 µM,> 100 µM,33.3 µM,39.9 µM,88.9 µM,
O=c1c2cc(Br)ccc2nc(CNc2ccccc2)n1-c1ccccc1,> 53.3 µM,,> 100 µM,25.6 µM,57.9 µM,29.7 µM,29.1 µM,36.9 µM,
O=S(=O)(O)C(c1ccccc1)C(O)c1ccccc1 (stereo not drawn),,,,,,,,,TGI (MDA-N): > 100 µM
Cc1ccccc1NC(=O)CC(=O)NNCC(=O)Nc1nnc(-c2ccccc2)s1,96.2 µM,> 100 µM,> 100 µM,> 100 µM,> 100 µM,> 100 µM,> 100 µM,> 100 µM,
Nc1ccccc1C(=O)/C=C/c1ccccc1O,> 100 µM,> 100 µM,,> 100 µM,> 100 µM,> 100 µM,> 100 µM,> 100 µM,
CN(C)c1ccc(/C=C2\CCc3ccccc3C2=O)cc1Br,> 100 µM,,> 100 µM,,> 100 µM,> 100 µM,> 100 µM,> 100 µM,
CC(=O)NC(CCCNC(=O)OCc1ccccc1)C(=O)NCc1ccccc1 (stereo not drawn),,,> 100 µM,> 100 µM,,> 100 µM,> 100 µM,> 100 µM,
